Experimental data published in patent publication US8592442B2, “Nilotinib HCl crystalline forms” (Teva Pharmaceutical Industries Ltd., priority 2008, dated 2013).
Where a name gives a salt, the structure may show the parent alone.

Columns and labels:
[1] = Polymorphic conversion when heated; assay type: physicochemical
[2] = as described in WO '870; cited from earlier work
[3] = as described in WO '870; cited from earlier work; remark: listed apart in the source

With `Cc1cn(-c2cc(NC(=O)c3ccc(C)c(Nc4nccc(-c5cccnc5)n4)c3)cc(C(F)(F)F)c2)cn1` [Nilotinib HCl crystalline form T17, Nilotinib HCl] the “conversion to other forms when heated” value [1] was “does not convert to other forms when heated”.

In the case of `Cc1cn(-c2cc(NC(=O)c3ccc(C)c(Nc4nccc(-c5cccnc5)n4)c3)cc(C(F)(F)F)c2)cn1` [Nilotinib HCl form A, Nilotinib HCl], the “conversion to other polymorphs when heated” value [2] is given as “converted to other polymorphs”.

In the case of `Cc1cn(-c2cc(NC(=O)c3ccc(C)c(Nc4nccc(-c5cccnc5)n4)c3)cc(C(F)(F)F)c2)cn1` [Nilotinib HCl form B, Nilotinib HCl], the “solubility in IPA” value [3] is listed as “not soluble in IPA”.
